Experimental findings from US11697650B2, “Compounds having tetrahydroindolizine-1-carboxamide as BCL-2 inhibitors” (Eil Therapeutics, Inc., priority 2021, dated 2023) are described below.

Structures are written as SMILES.

One assay concerns the target BCL-2 (Homo sapiens (Human), UniProt P10415). In words: BCL-2 TR-FRET Assay (primary PPI inhibition). The assay is classed as binding. The conditions noted are these: 60 min incubation; read-out: BCL2 (IC50 code, BCL-2 TR-FRET). The method, then:
BCL-2 TR-FRET Assay (BPS Bioscience, #50222)
The following assay concentrations and times were used: 3 ng BCL-2, 5 μl of 1:100 anti-His Tb-labeled donor, 5 μl of 1:100 Dye-labeled acceptor, 5 μl of 1:40 BCL-2 Peptide Ligand, and 2 ul of test compound, with 60 min incubation time. The results of the assay were read using a Clariostar (BMG Labtech) plate reader with the following parameters: TR FRET, 340ex/620 and 665em; 60 μsec Delay; and 500 μsec integration.
For orientation: Time-resolved FRET reads energy transfer from a long-lived donor to a nearby acceptor.

The target of another assay is BCL-XL (Homo sapiens (Human), UniProt Q07817). In words: BCL-XL TR-FRET Assay (primary PPI inhibition). The format is binding. The conditions noted are these: 60 min incubation; read-out: BCLxL (IC50 code, BCL-XL TR-FRET). The method, then:
BCL-XL TR-FRET Assay (BPS Bioscience, #50223)
The following assay concentrations and times were used: 10.5 ng BCL-XL, 5 μl of 1:100 anti-His Tb-labeled donor, 5 μl of 1:100 Dye-labeled acceptor, 5 μl of 1:80 BCL-XL Peptide Ligand, and 2 μl of test compound, with 60 min incubation time. The results of the assay were read using a Clariostar (BMG Labtech) plate reader with the following parameters: TR FRET, 340ex/620 and 665em; 60 μsec Delay; and 500 μsec integration.

BCL-2, sequence (P10415 whole entry): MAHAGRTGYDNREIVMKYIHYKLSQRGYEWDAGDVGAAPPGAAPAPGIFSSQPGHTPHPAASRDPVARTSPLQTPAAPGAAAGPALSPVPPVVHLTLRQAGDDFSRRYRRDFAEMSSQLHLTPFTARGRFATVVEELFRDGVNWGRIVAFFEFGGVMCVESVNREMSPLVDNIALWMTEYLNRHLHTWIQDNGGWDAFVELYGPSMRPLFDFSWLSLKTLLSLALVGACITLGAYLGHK
BCL-XL, sequence (Q07817 whole entry): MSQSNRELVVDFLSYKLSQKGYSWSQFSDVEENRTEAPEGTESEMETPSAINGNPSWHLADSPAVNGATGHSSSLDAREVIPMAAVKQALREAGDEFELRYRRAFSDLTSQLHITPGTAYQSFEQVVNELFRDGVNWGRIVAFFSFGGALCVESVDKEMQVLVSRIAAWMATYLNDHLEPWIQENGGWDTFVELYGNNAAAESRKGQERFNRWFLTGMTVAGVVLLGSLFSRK

As a reminder, the IC50 is the concentration that inhibits the measured activity by half. Regarding `O=C(c1cc(-c2cc3c(cc2C(=O)N2Cc4ccccc4C[C@H]2CN2CCOCC2)OCO3)n2c1CCCC2)N(Cc1c(F)cccc1C(F)(F)F)c1ccc(O)cc1` [Compound 22, N-[2-fluoro-6-(trifluoromethyl)benzyl]-N-(4-hydroxyphenyl)-3-(6-{[(3S)-3-(morpholin-4-ylmethyl)-3,4-dihydroisoquinolin-2(1H)-yl]carbonyl}-1,3-benzodioxol-5-yl)-5,6,7,8-tetrahydroindolizine-1-carboxamide], the IC50 at BCL-2 is over 50 nM; on BCL-XL it was over 4000 nM. Consider `O=C(c1cc(-c2cc3c(cc2C(=O)N2Cc4ccccc4C[C@H]2CN2CCOCC2)OCO3)n2c1CCCC2)N(Cc1ccc(OC(F)(F)F)cc1)c1ccc(O)cc1` [Compound 26, N-(4-hydroxyphenyl)-3-(6-{[(3S)-3-(morpholin-4-ylmethyl)-3,4-dihydroisoquinolin-2(1H)-yl]carbonyl}-1,3-benzodioxol-5-yl)-N-[4-(trifluoromethoxy)benzyl]-5,6,7,8-tetrahydroindolizine-1-carboxamide], for which the figures for the half-inhibitory concentration (IC50) on BCL-2 and on BCL-XL were over 50 nM and over 4000 nM, respectively. In the case of `Cc1cccc(C)c1CN(C(=O)c1cc(-c2cc3c(cc2C(=O)N2Cc4ccccc4C[C@H]2CN2CCOCC2)OCO3)n2c1CCCC2)c1ccc(O)cc1` [Compound 30, N-(2,6-dimethylbenzyl)-N-(4-hydroxyphenyl)-3-(6-{[(3S)-3-(morpholin-4-ylmethyl)-3,4-dihydroisoquinolin-2(1H)-yl]carbonyl}-1,3-benzodioxol-5-yl)-5,6,7,8-tetrahydroindolizine-1-carboxamide], at BCL-2, the IC50 is over 50 nM. On the same count and under the same terms, to `Cc1cccc(F)c1CN(C(=O)c1cc(-c2cc3c(cc2C(=O)N2Cc4ccccc4C[C@H]2CN2CCOCC2)OCO3)n2c1CCCC2)c1ccc(O)cc1` [Compound 32, N-(2-fluoro-6-methylbenzyl)-N-(4-hydroxyphenyl)-3-(6-{[(3S)-3-(morpholin-4-ylmethyl)-3,4-dihydroisoquinolin-2(1H)-yl]carbonyl}-1,3-benzodioxol-5-yl)-5,6,7,8-tetrahydroindolizine-1-carboxamide] belongs 10 to 50 nM; to `Cc1ccc(C(F)(F)F)cc1CN(C(=O)c1cc(-c2cc3c(cc2C(=O)N2Cc4ccccc4C[C@H]2CN2CCOCC2)OCO3)n2c1CCCC2)c1ccc(O)cc1` [Compound 38, N-(4-hydroxyphenyl)-N-[2-methyl-5-(trifluoromethyl)benzyl]-3-(6-{[(3S)-3-(morpholin-4-ylmethyl)-3,4-dihydroisoquinolin-2(1H)-yl]carbonyl}-1,3-benzodioxol-5-yl)-5,6,7,8-tetrahydroindolizine-1-carboxamide], 10 to 50 nM. Still for that read-out and setting: to `CC(C)(C)OC(=O)c1cccc(CN(C(=O)c2cc(-c3cc4c(cc3C(=O)N3Cc5ccccc5C[C@H]3CN3CCOCC3)OCO4)n3c2CCCC3)c2ccc(O)cc2)c1` [Compound 46, tert-Butyl 3-[(4-hydroxy-N-[3-[6-[(3S)-3-(morpholinomethyl)-3,4-dihydro-1H-isoquinoline-2-carbonyl]-1,3-benzodioxol-5-yl]-5,6,7,8-tetrahydroindolizine-1-carbonyl]anilino)methyl]benzoate] belongs 10 to 50 nM; to `N#Cc1ccccc1CN(C(=O)c1cc(-c2cc3c(cc2C(=O)N2Cc4ccccc4C[C@H]2CN2CCOCC2)OCO3)n2c1CCCC2)c1ccc(O)cc1` [Compound 47, N-[(2-Cyanophenyl)methyl]-N-(4-hydroxyphenyl)-3-[6-[(3S)-3-(morpholinomethyl)-3,4-dihydro-1H-isoquinoline-2-carbonyl]-1,3-benzodioxol-5-yl]-5,6,7,8-tetrahydroindolizine-1-carboxamide], over 50 nM.
